Assay results published in patent US9364477B2, “Mutant ROS expression in human cancer” (Cell Signaling Technology, Inc., priority 2009, dated 2016).

Experiments:
[1] = test system: BaF3 expressing FIG-ROS(S); assay: MTS cell growth assay, BaF3 expressing FIG-ROS(S); assay type: cell-based, Murine
Procedure: (§1) BaF3 cells were transduced with retrovirus encoding FIG-ROS(S), FIG-ROS(L), or FLT-31TD (the Internal tandem duplication mutation in FLT3 causes AML leukemia), and selected for IL3 independent growth. Karpas 299 cells, which express NPM-ALK, was used as a positive control.
(§2) After 72 hours, 20 ul of the CellTiter 96 Aqueous One Solution Reagent was added into each well of a 96 well assay plate (flat bottom), and then 100 ul of cells grown with or without treatment. Media-only wells were used as controls. The 96 well plate was incubated for 1-4 hours at 37° C., and then viable cells were counted by reading the absorbance at 490 nm using a 96 well plate reader.

[2] = test system: BaF3 expressing FIG-ROS(L); assay: MTS cell growth assay, BaF3 expressing FIG-ROS(L); assay type: cell-based, Murine; conditions: 0-1000 nM TAE-684, 72 hours
Procedure: as §1, §2

[3] = test system: BaF3 expressing FLT3ITD; assay: MTS cell growth assay, BaF3 transduced with FLT3/ITD; assay type: cell-based, Murine; conditions: 0-1000 nM TAE-684, 72 hours
Procedure: as §1, §2

[4] = test system: Karpas 299 cells; assay: MTS cell growth assay, Karpas 299 cells (NPM-ALK); assay type: cell-based; conditions: 0-1000 nM TAE-684, 72 hours
Procedure: as §1, §2

[5] = test system: Karpas 299 cells; assay: Cleaved caspase-3 flow cytometry apoptosis assay, Karpas 299; assay type: cell-based; conditions: presence of TAE-684
Source text: (§3) The mechanism of death of the BaF3 and Karpas 299 cells was next reviewed by measuring the percentage of cleaved-caspase 3 positive cells by flow cytometry assay using cleaved caspase-3 as a marker for apoptosis.

[6] = target: FIG-ROS(S) (Homo sapiens, UniProt P08922); assay: Western blotting of phosphorylation, BaF3 FIG-ROS(S); assay type: cell-based; conditions: 0, 10, 50, or 100 nM TAE-684 for three hours
[7] = test system: BaF3 cells expressing FIG-ROS(S); assay: Cleaved caspase-3 flow cytometry apoptosis assay, BaF3 FIG-ROS(S); assay type: cell-based, Murine; conditions: presence of TAE-684
Source text: as §3

[8] = test system: BaF3 cells transduced with the FLT-31TD retrovirus; assay: Western blotting of phosphorylation, BaF3 FLT-31TD; assay type: cell-based, Murine; conditions: 0, 10, 50, or 100 nM TAE-684 for three hours
[9] = test system: BaF3 cells expressing FIG-ROS(L); assay: Cleaved caspase-3 flow cytometry apoptosis assay, BaF3 FIG-ROS(L); assay type: cell-based, Murine; conditions: presence of TAE-684
Source text: as §3

[10] = target: FIG-ROS(L) (Homo sapiens, UniProt P08922); assay: Western blotting of phosphorylation, BaF3 FIG-ROS(L); assay type: cell-based; conditions: 0, 10, 50, or 100 nM TAE-684 for three hours
[11] = test system: Ros (D4D6) XP™ Rabbit mAb; conditions: HCC78 cells; antibody 0.19 μg/ml; peptide 1.9 ug/ml
Procedure: Briefly, paraffin embedded HCC78 cell pellets were deparaffinized and rehydrated through three changes of xylene and graded ethanol, then rinsed in diH2O. Slides were subjected to antigen retrieval in 1.0 mM EDTA, pH 8.0 in the microwave. After blocking for 1 hour in TBST/5% goat serum, slides were incubated overnight at 4° C. with Ros (D4D6) XP™ Rabbit mAb at 0.19 μg/ml in the absence of peptide or in the presence of one of 13 different ROS peptides at 1.9 ug/ml.
After washing, detection was performed with SignalStain® Boost IHC Detection Reagent (HRP, Rabbit) #8114 and NovaRed (Vector Laboratories, Burlingame, Calif.).

Row | Molecule | cellular growth response in the presence of TAE-684 ([1]; BaF3 FIG-ROS(S), 0-1000 nM TAE-684, 72 hours, MTS) | susceptibility of FIG-ROS(S) to TAE-684 compared with FIG-ROS(L) ([1]; BaF3 cells, MTS assay) | cellular growth response in the presence of TAE-684 [2] | cellular growth response in the presence of TAE-684 [3] | cellular growth response in the presence of TAE-684 [4] | cell cycle arrest [5] | death by apoptosis (cleaved-caspase 3 positive cells) [5] | phosphorylation of FIG-ROS(S) [6] | phosphorylation of STAT3, AKT, and ERK, and Shp2 (downstream signaling molecules) [6] | death by apoptosis (cleaved-caspase 3 positive cells) [7] | phosphorylation of STAT3, AKT, and ERK, and Shp2 [8] | death by apoptosis (cleaved-caspase 3 positive cells) [9] | phosphorylation of FIG-ROS(L) [10] | phosphorylation of STAT3, AKT, and ERK, and Shp2 (downstream signaling molecules) [10] | competition of ROS antibody binding off the IHC slide [11]
1 | COc1cc(N2CCC(N3CCN(C)CC3)CC2)ccc1Nc1ncc(Cl)c(Nc2ccccc2S(=O)(=O)C(C)C)n1 [TAE-684] | stopped growing | less susceptible | stopped growing | not susceptible | stopped growing | underwent cell cycle arrest | did not die by apoptosis | inhibited | inhibited | die by apoptosis | not affected | die by apoptosis | inhibited | inhibited | 
2 | (biotin)AGAGVAYCPSGKPE [peptide 9] |  |  |  |  |  |  |  |  |  |  |  |  |  |  | able to compete
